Assay results published in PMC5831858, “Pharmacological characterisation of CR6086, a potent prostaglandin E2 receptor 4 antagonist, as a new potential disease-modifying anti-rheumatic drug” (Arthritis Research & Therapy, 2018).
pKi: −log10 of the molar value. Where two headings read alike, the source gives them in different places. Marks after values point to notes of the source that are not given here.

How the values were obtained:
[1] = target: T1, human EP4 receptor (Homo sapiens, UniProt P35408); assay: EP4 radioligand binding assay ([^3H]PGE2), human receptor; conditions: for pKi: read-out: Ki CR6086
T1 construct: expressed in transfected cells
Source text: The complementary DNA (cDNA) clone of the human EP4 receptor (hEP4R; NM_000958.2) was obtained from Thermo Fisher Scientific (Ultimate ORF Clone Collection, clone ID IOH46525; Waltham, MA, USA). The coding sequence was subcloned in expression vector pcDNATM6.2/V5-DEST by using Invitrogen Gateway technology (Thermo Fisher Scientific). Human embryonic kidney cells 293 (HEK293) were obtained from the American Type Culture Collection (ATCC; Manassas, VA, USA) and transfected with expression vector for hEP4R according to the method described in the FuGENE 6 Transfection Reagent technical manual (Promega, Madison, WI, USA). The clones overexpressing the protein were selected for Blasticidin S HCl (Thermo Fisher Scientific) resistance. The selected clone was grown in DMEM containing 10% FBS and 10 μg/ml Blasticidin S HCl (selection medium) at 37 °C in a humidified atmosphere of 5% CO2 in air.
Membranes expressing the human EP4 receptor were prepared from stably transfected HEK293 cell line. Cells were grown adherent in DMEM with GlutaMAX-I (Thermo Fisher Scientific) containing 10% FBS and Blasticidin 10 μg/ml at 37 °C in a humidified atmosphere with 5% CO2. Membranes expressing the mouse or rat EP4 receptor were prepared from transiently transfected HEK293 cells. Cells were grown adherent in DMEM with GlutaMAX-I containing 10% FBS at 37 °C in a humidified atmosphere with 5% CO2. For the preparation of all cell membranes, culture medium was aspirated from 150-cm^2 flasks into which cells were seeded. Cell monolayers were then washed with 10 ml of hypotonic lysis buffer (Tris 5 mM + ethylenediaminetetraacetic acid [EDTA] 5 mM, pH 7.4), detached, and lysed with 10 ml + 10 ml of lysis buffer by mechanical scraping. Lysates were vortexed for 30 seconds and centrifuged at 40,000 × g for 22 minutes at 4 °C. Pellets were stored at −80 °C until use. Protein content of the cell membrane suspension was determined using bovine serum albumin (BSA) as a standard.
Experimental procedures were performed according to the method of Abramovitz et al.. [^3H]PGE2 (PerkinElmer, Waltham, MA, USA) binding assays for recombinant EP4 receptors were performed in 10 mM 2-(N-morpholino)ethanesulphonic acid-KOH buffer, pH 6, containing 10 mM MgCl2 and 1 mM CaCl2. Ten micrograms of protein from membrane fractions were incubated in a total volume of 0.1 ml with 1–1.5 nM [^3H]PGE2. To determine the total binding or non-specific binding, 1% dimethyl sulphoxide (DMSO) or 1 μM PGE2 was added to the reaction mixture. Incubation was carried out in 96-well multi-well plates for 90 minutes at room temperature prior to separation of the bound and free radioligand by rapid filtration on glass-fibred filters (UniFilter-96 GF/B; PerkinElmer) pre-soaked in 0.3% polyethylenimine. […] The residual [^3H]PGE2 binding was determined using a solid scintillation counter (TopCount; PerkinElmer) after at least 1 h of stabilisation. In saturation binding studies, isotherm-binding curves generated with six to eight different concentrations of [^3H]PGE2 (from 0.5 to 25 nM) were evaluated. […]
Specific binding to the receptors was defined as the difference between total binding and non-specific binding, as determined in the presence of an excess of unlabelled ligand. Binding isotherm curves were analysed to determine the equilibrium binding parameters, affinity (dissociation constant [Kd]) and maximal binding capacity of labelled ligand. Competition curves were analysed to assess the half-maximal inhibitory concentration (IC50). […]

[2] = system: arthritic mice (collagen-induced arthritis model); assay: CIA in mice, third study (CR6086, MTX, combination): clinical score, oedema, histology; assay type: in vivo, mouse; conditions: for CLINICAL SCORE (interquartile range): 30 mg/kg CR6086, median (IQR)
[3] = target: T2, EP1 (Homo sapiens, UniProt P34995); assay: Eicosanoid receptor EP1 binding; conditions: [^3H]PGE2, HEK-293 cells, read-out: CR6086 Activity at 10µM
T2 construct: host or cells: HEK-293 cells

[4] = target: MT1 (ML1A) (Homo sapiens, UniProt P48039); assay: MT1 receptor binding; conditions: [^125I]2-iodomelatonin, Human recombinant CHO cells, read-out: CR6086 Activity at 10µM
[5] = target: GAL2 (Homo sapiens, UniProt O43603); assay: Galanin receptor GAL2 binding; conditions: [^125I]galanin, Human recombinant CHO cells, read-out: CR6086 Activity at 10µM
[6] = equilibrium binding, CR6086 50 nM

T1 sequence (P35408 whole entry): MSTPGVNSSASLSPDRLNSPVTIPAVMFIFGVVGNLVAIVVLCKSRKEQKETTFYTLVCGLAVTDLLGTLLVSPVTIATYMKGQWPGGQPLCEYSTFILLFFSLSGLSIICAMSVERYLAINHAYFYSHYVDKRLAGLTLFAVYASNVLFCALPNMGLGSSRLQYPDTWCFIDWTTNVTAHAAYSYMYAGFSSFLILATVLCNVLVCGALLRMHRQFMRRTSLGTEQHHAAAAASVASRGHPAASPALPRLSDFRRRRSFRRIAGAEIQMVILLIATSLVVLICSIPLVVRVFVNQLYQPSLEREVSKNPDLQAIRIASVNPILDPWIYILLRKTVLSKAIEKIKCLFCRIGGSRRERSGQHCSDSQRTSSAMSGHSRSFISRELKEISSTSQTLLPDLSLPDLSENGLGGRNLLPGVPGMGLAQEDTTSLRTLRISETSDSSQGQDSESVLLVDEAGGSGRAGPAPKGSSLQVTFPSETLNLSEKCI
GAL2, sequence (O43603 whole entry): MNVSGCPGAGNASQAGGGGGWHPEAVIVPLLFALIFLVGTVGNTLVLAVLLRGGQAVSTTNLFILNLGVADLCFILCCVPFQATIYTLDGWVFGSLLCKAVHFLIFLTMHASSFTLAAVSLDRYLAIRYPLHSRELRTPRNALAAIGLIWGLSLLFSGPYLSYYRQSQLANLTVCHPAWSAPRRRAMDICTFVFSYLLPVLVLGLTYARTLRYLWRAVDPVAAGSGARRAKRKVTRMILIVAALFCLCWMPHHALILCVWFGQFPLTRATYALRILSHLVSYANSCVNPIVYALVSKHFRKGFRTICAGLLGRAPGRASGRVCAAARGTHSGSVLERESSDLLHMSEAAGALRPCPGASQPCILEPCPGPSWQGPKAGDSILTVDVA
T2 sequence (P34995 whole entry): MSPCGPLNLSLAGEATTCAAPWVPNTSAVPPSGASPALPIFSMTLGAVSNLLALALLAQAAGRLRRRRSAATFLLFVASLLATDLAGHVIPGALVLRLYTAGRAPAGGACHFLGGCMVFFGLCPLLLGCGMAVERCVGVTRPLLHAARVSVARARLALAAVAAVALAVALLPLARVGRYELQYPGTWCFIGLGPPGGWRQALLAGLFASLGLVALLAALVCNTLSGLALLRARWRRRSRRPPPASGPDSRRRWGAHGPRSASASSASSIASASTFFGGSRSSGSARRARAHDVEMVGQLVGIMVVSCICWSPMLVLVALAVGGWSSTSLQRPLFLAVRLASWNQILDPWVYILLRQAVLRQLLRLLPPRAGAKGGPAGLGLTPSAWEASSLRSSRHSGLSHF
MT1 (ML1A), sequence (P48039 whole entry): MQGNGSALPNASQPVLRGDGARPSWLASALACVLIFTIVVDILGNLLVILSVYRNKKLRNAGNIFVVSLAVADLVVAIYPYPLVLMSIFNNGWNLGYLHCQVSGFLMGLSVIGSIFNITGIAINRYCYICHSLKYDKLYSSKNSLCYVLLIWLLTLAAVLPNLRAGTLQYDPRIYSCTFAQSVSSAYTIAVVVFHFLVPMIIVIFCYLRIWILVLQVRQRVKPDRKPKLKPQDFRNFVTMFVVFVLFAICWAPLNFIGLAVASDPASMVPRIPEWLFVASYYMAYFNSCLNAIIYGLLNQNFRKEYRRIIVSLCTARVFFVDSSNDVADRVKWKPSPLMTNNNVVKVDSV

O=C([O-])c1ccc(C2(NC(=O)[C@H]3CC4(CCN3Cc3ccc(C(F)(F)F)cc3)CC4)CC2)cc1.[Na+] [CR6086, Sodium (R)-4-(1-(6-(4-(trifluoromethyl)benzyl)-6-azaspiro[2.5]octane-5-carboxamido)cyclopropyl)benzoate]
pKi ([1]; [^3H]PGE2 displacement, HEK293 membranes, absence of BSA): 7.78
pKi ([1]; after addition of 0.5% BSA in the assay buffer): 7.81
change in [^3H]PGE2 affinity in the presence of CR6086 [1, 6]: fourfold decrease
change in maximal binding capacity of [^3H]PGE2 [1, 6]: +20%
type of antagonism [1, 6]: competitive antagonist
effect on joint histopathology ([2]; 16 days, 30 mg/kg CR6086, 3 mg/kg MTX, alone or combined): significantly improved all histological features of arthritis
CLINICAL SCORE (interquartile range) ([2]; DAY 0): 2.0 (2.0 – 2.0) *
CLINICAL SCORE (interquartile range) ([2]; DAY 1): 2.0 (2.0 – 2.0)
CLINICAL SCORE (interquartile range) ([2]; DAY 2): 2.0 (1.0 – 2.0)
CLINICAL SCORE (interquartile range) ([2]; DAY 3): 2.0 (1.0 – 3.1)
CLINICAL SCORE (interquartile range) ([2]; DAY 4): 2.0 (1.0 – 2.3)
CLINICAL SCORE (interquartile range) ([2]; DAY 5): 2.0 (1.3 – 2.0)
CLINICAL SCORE (interquartile range) ([2]; DAY 6): 2.0 (2.0 – 3.0)
CLINICAL SCORE (interquartile range) ([2]; DAY 7): 2.0 (1.0 – 3.1)
CLINICAL SCORE (interquartile range) ([2]; DAY 8): 2.0 (0.5 – 3.5)
CLINICAL SCORE (interquartile range) ([2]; DAY 9): 2.0 (1.0 – 3.3)
CLINICAL SCORE (interquartile range) ([2]; DAY 10): 2.5 (2.0 – 4.3)
CLINICAL SCORE (interquartile range) ([2]; DAY 11): 4.0 (2.0 – 5.0)
CLINICAL SCORE (interquartile range) ([2]; DAY 12): 4.8 (2.8 – 5.1)
CLINICAL SCORE (interquartile range) ([2]; DAY 13): 4.5 (3.0 – 5.5)
CLINICAL SCORE (interquartile range) ([2]; DAY 14): 3.0 (3.0 – 4.9)
CLINICAL SCORE (interquartile range) ([2]; DAY 15): 4.5 (3.0 – 5.0)
CLINICAL SCORE (interquartile range) ([2]; DAY 16): 2.0 (1.0 – 3.5)
inhibition at 10 µM [3]: < 20%
inhibition at 10 µM [4]: < 20%
inhibition at 10 µM [5]: < 20%
